This assay addresses T1, AR (Homo sapiens, UniProt P10275, T878A).
T1 construct: into the androgen-dependent PCa cells (LNCaP); endogenous in cells; host or cells: LNCaP-ARR2PB-eGFP
T1 sequence (P10275 1-920 T878A): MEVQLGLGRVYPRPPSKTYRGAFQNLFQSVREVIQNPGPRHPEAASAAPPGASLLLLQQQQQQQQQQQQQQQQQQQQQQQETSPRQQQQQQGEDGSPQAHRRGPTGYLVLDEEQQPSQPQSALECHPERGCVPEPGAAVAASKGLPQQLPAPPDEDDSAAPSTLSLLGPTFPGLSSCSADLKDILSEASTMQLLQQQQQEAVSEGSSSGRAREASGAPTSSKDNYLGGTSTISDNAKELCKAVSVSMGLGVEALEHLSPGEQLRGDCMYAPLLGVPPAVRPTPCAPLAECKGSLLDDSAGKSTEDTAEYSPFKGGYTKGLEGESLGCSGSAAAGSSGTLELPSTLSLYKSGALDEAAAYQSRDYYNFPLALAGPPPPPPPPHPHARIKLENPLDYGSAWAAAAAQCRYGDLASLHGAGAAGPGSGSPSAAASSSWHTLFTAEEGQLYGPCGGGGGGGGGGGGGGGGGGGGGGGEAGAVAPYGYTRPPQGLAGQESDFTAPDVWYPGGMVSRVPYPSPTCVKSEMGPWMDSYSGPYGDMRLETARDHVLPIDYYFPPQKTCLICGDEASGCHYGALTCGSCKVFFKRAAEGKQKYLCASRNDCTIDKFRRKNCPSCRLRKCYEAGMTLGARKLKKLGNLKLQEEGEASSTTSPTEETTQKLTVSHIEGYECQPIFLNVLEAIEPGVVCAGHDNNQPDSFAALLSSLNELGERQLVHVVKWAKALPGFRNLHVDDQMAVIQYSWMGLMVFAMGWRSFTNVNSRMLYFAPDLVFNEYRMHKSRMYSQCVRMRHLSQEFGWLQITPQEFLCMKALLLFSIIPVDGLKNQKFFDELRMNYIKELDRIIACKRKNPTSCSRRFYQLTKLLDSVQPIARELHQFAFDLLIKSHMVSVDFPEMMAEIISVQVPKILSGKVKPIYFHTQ
Nature of the assay: AR transcriptional activity, LNCaP-ARR2PB-eGFP reporter cells. The assay is classed as cell-based. The settings on record: read-out: IC50 AR transcriptional activities. The text has this: Detection principles: We conducted a stable transfection of promoter ARR2PB known for its strong AR responsiveness, into the androgen-dependent PCa cells (LNCaP). The expression of enhanced green fluorescent protein (eGFP) is depending on the degree of activation of AR. Therefore, LNCaP-ARR2PB-eGFP cell line could quantitatively determine the AR antagonistic activities of the compounds by evaluating the expression of eGFP.
For the molecule `Cc1oc(-c2cccc(C(F)(F)F)c2)cc1C(=O)Nc1nc(CN2CCN(C)CC2)ns1` [Compound A-111, 2-Methyl-N-(3-((4-methylpiperazin-1-yl)methyl)-1,2,4-thiadiazol-5-yl)-5-(3-(trifluoro-methyl)phenyl)furan-3-carboxamide], the IC50 came out at 0.57 µM.
With `Cc1oc(C(=O)Nc2nc(CC(C)(F)F)ns2)cc1-c1cccc(OC(F)(F)F)c1` [Compound F-17, N-(3-(2,2-difluoropropyl)-1,2,4-thiadiazol-5-yl)-5-methyl-4-(3-(trifluoromethoxy)phenyl)furan-2-carboxamide] the figure was 25 µM; with `Cc1sc(-c2cccc(C(F)(F)F)c2)cc1C(=O)Nc1nc(CCl)ns1` [Compound C-40, N-(3-(chloromethyl)-1,2,4-thiadiazol-5-yl)-2-methyl-5-(3-(trifluoromethyl)phenyl)thiophene-3-carboxamide], 12.3 µM.
For `CN(C)Cc1nsc(NC(=O)c2coc(-c3cccc(C#N)c3)c2)n1` [Compound B-47, 5-(3-Cyanophenyl)-N-(3-((dimethylamino)methyl)-1,2,4-thiadiazol-5-yl)furan-3-carboxamide], the IC50 turned out to be 18.6 µM.
For the molecule `CC(F)(F)Cc1nsc(NC(=O)c2coc(-c3cccc(C(F)(F)F)c3)c2)n1` [Compound B-35, N-(3-(2,2-difluoropropyl)-1,2,4-thiadiazol-5-yl)-5-(3-(trifluoromethyl)phenyl)furan-3-carboxamide], the concentration for half-maximal inhibition (IC50) was 14.5 µM.
As for `CC(=O)Cc1nsc(NC(=O)c2csc(-c3cccc(OC(F)F)c3)c2)n1` [Compound D-5, 5-(3-(Difluoromethoxy)phenyl)-N-(3-(2-oxopropyl)-1,2,4-thiadiazol-5-yl)thiophene-3-carboxamide], the IC50 was found to be 40 µM.
With `CC(=O)Cc1nsc(NC(=O)c2cc(-c3cccc(OC(F)F)c3)oc2C)n1` [Compound A-14, 5-(3-(Difluoromethoxy)phenyl)-2-methyl-N-(3-(2-oxopropyl)-1,2,4-thiadiazol-5-yl)furan-3-carboxamide], the concentration for half-maximal inhibition (IC50) came out at 0.05 µM.
In the case of `CC(=O)Cc1nsc(NC(=O)c2cc(-c3cccc(C#N)c3)c(C)o2)n1` [Compound F-2, 4-(3-Cyanophenyl)-5-methyl-N-(3-(2-oxopropyl)-1,2,4-thiadiazol-5-yl)furan-2-carboxamide], the concentration for half-maximal inhibition (IC50) came out at 34.3 µM.
On to `Cc1oc(-c2cccc(OC(F)F)c2)cc1C(=O)Nc1nc(CN2CCCCC2)ns1` [Compound A-129, 5-(3-(Difluoromethoxy)phenyl)-2-methyl-N-(3-(piperidin-1-ylmethyl)-1,2,4-thiadiazol-5-yl)furan-3-carboxamide], for which the IC50 turned out to be 0.06 µM.
Regarding `O=C(Nc1nc(CCl)ns1)c1cc(-c2cccc(C(F)(F)F)c2)oc1C(F)(F)F` [Compound E-32, N-(3-(chloromethyl)-1,2,4-thiadiazol-5-yl)-2-(trifluoromethyl)-5-(3-(trifluoromethyl)phenyl)furan-3-carboxamide], the IC50 stood at 1.32 µM.
As for `CC(Cc1nsc(NC(=O)c2cc(-c3cccc(C(F)(F)F)c3)oc2C(F)(F)F)n1)=C(F)F` [Compound E-22, N-(3-(3,3-difluoro-2-methylallyl)-1,2,4-thiadiazol-5-yl)-2-(trifluoromethyl)-5-(3-(trifluoromethyl)phenyl) furan-3-carboxamide], the IC50 came to 1.46 µM.
Turning to `Cc1sc(-c2cccc(C(F)(F)F)c2)cc1C(=O)Nc1nc(CC(C)N(C)C)ns1` (stereo not shown) [Compound C-6, N-(3-(2-(dimethylamino)propyl)-1,2,4-thiadiazol-5-yl)-2-methyl-5-(3-(trifluoromethyl)phenyl)thiophene-3-carboxamide], the concentration for half-maximal inhibition (IC50) came to 33.2 µM.
With `CCN(CC)C(C)Cc1nsc(NC(=O)c2cc(-c3cccc(C(F)(F)F)c3)oc2C)n1` (stereo not shown) [Compound A-39, N-(3-(2-(diethylamino)propyl)-1,2,4-thiadiazol-5-yl)-2-methyl-5-(3-(trifluoromethyl)phenyl)furan-3-carboxamide], the half-maximal inhibitory concentration (IC50) is 0.12 µM.
With `CC(Cc1nsc(NC(=O)c2cc(-c3cccc(C(F)(F)F)c3)oc2C)n1)=C(F)F` [Compound A-80, N-(3-(3,3-difluoro-2-methylallyl)-1,2,4-thiadiazol-5-yl)-2-methyl-5-(3-(trifluoromethyl)phenyl)furan-3-carboxamide] the figure was 0.81 µM.
With `COc1cccc(-c2cc(C(=O)Nc3nc(CC(C)N4CCCCC4)ns3)cs2)c1` [Compound D-14, 5-(3-Methoxyphenyl)-N-(3-(2-(piperidin-1-yl)propyl)-1,2,4-thiadiazol-5-yl)thiophene-3-carboxamide] the figure was 37.2 µM; with `CC(O)Cc1nsc(NC(=O)c2csc(-c3cccc(C(F)(F)F)c3)c2)n1` [Compound D-20, N-(3-(2-hydroxypropyl)-1,2,4-thiadiazol-5-yl)-5-(3-(trifluoromethyl)phenyl)thiophene-3-carboxamide], 18.1 µM; with `Cc1oc(-c2cccc(C#N)c2)cc1C(=O)Nc1nc(CC(C)N2CCOCC2)ns1` (stereo not shown) [Compound A-52, 5-(3-Cyanophenyl)-2-methyl-N-(3-(2-morpholinopropyl)-1,2,4-thiadiazol-5-yl)furan-3-carboxamide], 0.76 µM.
As for `Cc1oc(-c2cccc(C(F)(F)F)c2)cc1C(=O)Nc1nc(CN2CCCC2)ns1` [Compound A-108, 2-Methyl-N-(3-(pyrrolidin-1-ylmethyl)-1,2,4-thiadiazol-5-yl)-5-(3-(trifluoromethyl)phenyl)furan-3-carboxamide], the 50% inhibitory concentration (IC50) was 0.84 µM.
As for `CN1CCN(Cc2nsc(NC(=O)c3cc(-c4cccc(OC(F)(F)F)c4)co3)n2)CC1` [Compound G-27], the figure is 26.2 µM; as for `Cc1oc(-c2cccc(C(F)(F)F)c2)cc1C(=O)Nc1nc(CC(C)N2CCCCC2)ns1` (stereo not shown) [Compound A-41, 2-Methyl-N-(3-(2-(piperidin-1-yl)propyl)-1,2,4-thiadiazol-5-yl)-5-(3-(trifluoromethyl)phenyl)furan-3-carboxamide], 0.17 µM.
For `CO/N=C(\C)Cc1nsc(NC(=O)c2cc(-c3cccc(C(F)(F)F)c3)oc2C)n1` [Compound A-70, N-(3-(2-(methoxyimino)propyl)-1,2,4-thiadiazol-5-yl)-2-methyl-5-(3-(trifluoromethyl)phenyl)furan-3-carboxamide], the concentration for half-maximal inhibition (IC50) worked out at 0.88 µM.
With `COc1cccc(-c2cc(C(=O)Nc3nc(CC(C)=C(F)F)ns3)oc2C)c1` [Compound F-15, N-(3-(3,3-difluoro-2-methylallyl)-1,2,4-thiadiazol-5-yl)-4-(3-methoxyphenyl)-5-methyl-furan-2-carboxamide], the 50% inhibitory concentration (IC50) was determined as 35.9 µM.
Turning to `Cc1oc(-c2cccc(OC(F)(F)F)c2)cc1C(=O)Nc1nc(CN2CCCC2)ns1` [Compound A-124, 2-Methyl-N-(3-(pyrrolidin-1-ylmethyl)-1,2,4-thiadiazol-5-yl)-5-(3-(trifluoromethoxy)phenyl)furan-3-carboxamide], the IC50 worked out at 0.04 µM.
For the molecule `Cc1sc(-c2cccc(OC(F)(F)F)c2)cc1C(=O)Nc1nc(CN2CCCC2)ns1` [Compound C-53, 2-Methyl-N-(3-(pyrrolidin-1-ylmethyl)-1,2,4-thiadiazol-5-yl)-5-(3-(trifluoromethoxy)phenyl)thiophene-3-carboxamide], the IC50 is 14.8 µM.
As for `Cc1sc(-c2cccc(C(F)(F)F)c2)cc1C(=O)Nc1nc(CC(C)O)ns1` (stereo not shown) [Compound C-20, N-(3-(2-hydroxypropyl)-1,2,4-thiadiazol-5-yl)-2-methyl-5-(3-(trifluoromethyl)phenyl)thiophene-3-carboxamide], the figure is 4.52 µM; as for `Cc1oc(-c2cccc(C(F)(F)F)c2)cc1C(=O)Nc1nc(CC(C)O)ns1` (stereo not shown) [Compound A-60, N-(3-(2-hydroxypropyl)-1,2,4-thiadiazol-5-yl)-2-methyl-5-(3-(trifluoromethyl)phenyl)furan-3-carboxamide], 0.39 µM; as for `CC(=O)Cc1nsc(NC(=O)c2cc(-c3cccc(O)c3)oc2C)n1` [Compound A-26, 5-(3-Hydroxyphenyl)-2-methyl-N-(3-(2-oxopropyl)-1,2,4-thiadiazol-5-yl)furan-3-carboxamide], 3.21 µM.
On to `CC(Cc1nsc(NC(=O)c2csc(-c3cccc(OC(F)F)c3)c2)n1)N1CCN(C)CC1` [Compound D-19, 5-(3-(Difluoromethoxy)phenyl)-N-(3-(2-(4-methylpiperazin-1-yl)propyl)-1,2,4-thiadiazol-5-yl)thiophene-3-carboxamide], for which the concentration for half-maximal inhibition (IC50) came out at 19.2 µM.

Source of the values: patent publication US20240376091A1, “THIADIAZOLEAMIDE DERIVATIVES AND THEIR APPLICATIONS” (ZHEJIANG UNIVERSITY, priority 2021, published 2024).
